The record followed here is US7368578B2, “Five-membered heterocyclic compounds” (Takeda Pharmaceutical Company Limited, priority 2002, dated 2008).

SMILES strings stand for the structures.

The melting point is the temperature of the solid-liquid transition. For `CCc1nc(/C=C/c2cn(-c3ccccc3)nc2OCc2ccc(OCc3nc(-c4cccc(C(=O)OC)c4)oc3C)c(OC)c2)cs1` [Example 225 (E form), methyl 3-[4-({4-[({4-[(E)-2-(2-ethyl-1,3-thiazol-4-yl)ethenyl]-1-phenyl-1H-pyrazol-3-yl}oxy)methyl]-2-methoxyphenoxy}methyl)-5-methyl-1,3-oxazol-2-yl]benzoate], the melting point was in the range of 132 to 133 °C.

`CCc1nc(/C=C\c2cn(-c3ccccc3)nc2OCc2ccc(OCc3nc(-c4cccc(C(=O)OC)c4)oc3C)c(OC)c2)cs1` [Example 225 (Z form), methyl 3-[4-({4-[({4-[(Z)-2-(2-ethyl-1,3-thiazol-4-yl)ethenyl]-1-phenyl-1H-pyrazol-3-yl}oxy)methyl]-2-methoxyphenoxy}methyl)-5-methyl-1,3-oxazol-2-yl]benzoate]: the melting point was 125 to 126 °C. The result for `COc1cc(COc2nn(-c3ccccc3)cc2C=O)ccc1OCc1nc(-c2cccnc2)oc1C` [Example 227, 3-({3-methoxy-4-[(5-methyl-2-pyridin-3-yl-1,3-oxazol-4-yl)methoxy]benzyl}oxy)-1-phenyl-1H-pyrazole-4-carbaldehyde] reads 161 to 162 °C.

Regarding `CCc1nc(/C=C/c2cn(-c3ccccc3)nc2OCc2ccc(OCc3nc(N4CCOCC4)sc3C)c(OC)c2)cs1` [Example 232 (E form), 4-[4-({4-[({4-[(E)-2-(2-ethyl-1,3-thiazol-4-yl)ethenyl]-1-phenyl-1H-pyrazol-3-yl}oxy)methyl]-2-methoxyphenoxy}methyl)-5-methyl-1,3-thiazol-2-yl]morpholine], the melting point lay in the range of 76 to 78 °C. Compound `CCc1nc(/C=C\c2cn(-c3ccccc3)nc2OCc2ccc(OCc3nc(N4CCOCC4)sc3C)c(OC)c2)cs1` [Example 232 (Z form), 4-[4-({4-[({4-[(Z)-2-(2-ethyl-1,3-thiazol-4-yl)ethenyl]-1-phenyl-1H-pyrazol-3-yl}oxy)methyl]-2-methoxyphenoxy}methyl)-5-methyl-1,3-thiazol-2-yl]morpholine] displayed a melting point of 112 to 114 °C. For the compound `Cc1oc(-c2ccccc2)nc1COc1ccc(C(=O)Nc2nn(-c3ccccc3)cc2C=O)cc1` [Example 233, N-(4-formyl-1-phenyl-1H-pyrazol-3-yl)-4-[(5-methyl-2-phenyl-1,3-oxazol-4-yl)methoxy]benzamide], the melting point was 185 to 186 °C. In the case of `COc1cc(COc2nn(-c3ccccc3)cc2C=O)ccc1OCc1nc(-c2cccc(O)c2)oc1C` [Example 234, 3-[(4-{[2-(3-hydroxyphenyl)-5-methyl-1,3-oxazol-4-yl]methoxy}-3-methoxybenzyl)oxy]-1-phenyl-1H-pyrazole-4-carbaldehyde], the melting point was in the range of 193 to 194 °C. The result for `COC(=O)COc1cccc(-c2nc(COc3ccc(COc4nn(-c5ccccc5)cc4C=O)cc3OC)c(C)o2)c1` [Example 235, methyl (3-{4-[(4-{[(4-formyl-1-phenyl-1H-pyrazol-3-yl)oxy]methyl}-2-methoxyphenoxy)methyl]-5-methyl-1,3-oxazol-2-yl}phenoxy)acetate] reads 107 to 109 °C; that for `COC(=O)c1cccc(-c2nc(COc3ccc(COc4nn(-c5ccccc5)cc4C=O)cc3)c(C)o2)c1` [Example 237, methyl 3-{4-[(4-{[(4-formyl-1-phenyl-1H-pyrazol-3-yl)oxy]methyl}phenoxy)methyl]-5-methyl-1,3-oxazol-2-yl}benzoate], 161 to 162 °C. Compound `COc1cc(COc2nn(-c3ccccc3)cc2C=O)ccc1OCc1nc(N2CCOCC2)sc1C` [Example 238, 3-({3-methoxy-4-[(5-methyl-2-morpholin-4-yl-1,3-thiazol-4-yl)methoxy]benzyl}oxy)-1-phenyl-1H-pyrazole-4-carbaldehyde] yielded a melting point of 149 to 150 °C. On to `CCc1nc(/C=C/c2cn(-c3ccccc3)nc2OCc2ccc(OCc3nc(-c4ccc(C(=O)O)o4)oc3C)c(OC)c2)cs1` [Example 242, 5-[4-({4-[({4-[(E)-2-(2-ethyl-1,3-thiazol-4-yl)ethenyl]-1-phenyl-1H-pyrazol-3-yl}oxy)methyl]-2-methoxyphenoxy}methyl)-5-methyl-1,3-oxazol-2-yl]-2-furancarboxylic acid], for which the melting point lay within 154 to 155 °C. The result for `CCOC(=O)c1ccc(-c2nc(COc3ccc(COc4nn(-c5ccccc5)cc4C=O)cc3OC)c(C)o2)o1` [Example 243, ethyl 5-{4-[(4-{[(4-formyl-1-phenyl-1H-pyrazol-3-yl)oxy]methyl}-2-methoxyphenoxy)methyl]-5-methyl-1,3-oxazol-2-yl}-2-furancarboxylate] reads 143 to 145 °C. The same measure for `CCOC(=O)c1ccc(-c2nc(COc3ccc(COc4nn(-c5ccccc5)cc4/C=C/c4csc(CC)n4)cc3OC)c(C)o2)o1` [Example 244 (E form), ethyl 5-[4-({4-[({4-[(E)-2-(2-ethyl-1,3-thiazol-4-yl)ethenyl]-1-phenyl-1H-pyrazol-3-yl}oxy)methyl]-2-methoxyphenoxy}methyl)-5-methyl-1,3-oxazol-2-yl]-2-furancarboxylate]: 150 to 151 °C; for `CCOC(=O)c1ccc(-c2nc(COc3ccc(COc4nn(-c5ccccc5)cc4/C=C\c4csc(CC)n4)cc3OC)c(C)o2)o1` [Example 244 (Z form), ethyl 5-[4-({4-[({4-[(Z)-2-(2-ethyl-1,3-thiazol-4-yl)ethenyl]-1-phenyl-1H-pyrazol-3-yl}oxy)methyl]-2-methoxyphenoxy}methyl)-5-methyl-1,3-oxazol-2-yl]-2-furancarboxylate]: 133 to 135 °C; for `COc1cc(C(=O)Nc2nn(-c3ccccc3)cc2C=O)ccc1OCc1nc(-c2ccccc2)oc1C` [Example 245, N-(4-formyl-1-phenyl-1H-pyrazol-3-yl)-3-methoxy-4-[(5-methyl-2-phenyl-1,3-oxazol-4-yl)methoxy]benzamide]: 234 to 235 °C. `CCOC(=O)Cc1ccc(-c2nc(COc3ccc(COc4nn(-c5ccccc5)cc4C=O)cc3OC)c(C)o2)cc1` [Example 246, ethyl (4-{4-[(4-{[(4-formyl-1-phenyl-1H-pyrazol-3-yl)oxy]methyl}-2-methoxyphenoxy)methyl]-5-methyl-1,3-oxazol-2-yl}phenyl)acetate] displayed a melting point of 157 to 158 °C. The result for `CCOC(=O)Cc1cccc(-c2nc(COc3ccc(COc4nn(-c5ccccc5)cc4C=O)cc3OC)c(C)o2)c1` [Example 253, ethyl (3-{4-[(4-{[(4-formyl-1-phenyl-1H-pyrazol-3-yl)oxy]methyl}-2-methoxyphenoxy)methyl]-5-methyl-1,3-oxazol-2-yl}phenyl)acetate] reads 145 to 146 °C; that for `COC(=O)c1cc(-c2nc(COc3ccc(COc4nn(-c5ccccc5)cc4C=O)cc3OC)c(C)o2)ccc1OS(C)(=O)=O` [Example 255, methyl 5-{4-[(4-{[(4-formyl-1-phenyl-1H-pyrazol-3-yl)oxy]methyl}-2-methoxyphenoxy)methyl]-5-methyl-1,3-oxazol-2-yl}-2-(methanesulfonyloxy)benzoate], 136 to 137 °C. The compound `COC(=O)c1cc(-c2nc(COc3ccc(COc4nn(-c5ccccc5)cc4C=O)cc3OC)c(C)o2)ccc1OC` [Example 256, methyl 5-{4-[(4-{[(4-formyl-1-phenyl-1H-pyrazol-3-yl)oxy]methyl}2-methoxyphenoxy)methyl]-5-methyl-1,3-oxazol-2-yl}-2-methoxybenzoate] yielded a melting point of 165 to 166 °C. The result for `CCOC(=O)/C=C/c1nc(-c2ccccc2)oc1COc1ccc(OCc2nc(-c3ccccc3)oc2C)cc1` [Example 258, ethyl (2E)-3-[5-({4-[(5-methyl-2-phenyl-1,3-oxazol-4-yl)methoxy]phenoxy}methyl)-2-phenyl-1,3-oxazol-4-yl]-2-propenoate] reads 107 to 108 °C.

`CCOC(=O)/C=C/c1cn(Cc2ccccc2)nc1OCc1ccc(OCc2nc(-c3ccco3)oc2C)c(OC)c1` [Example 259, ethyl (2E)-3-{1-benzyl-3-[(4-{[2-(2-furyl)-5-methyl-1,3-oxazol-4-yl]methoxy}-3-methoxybenzyl)oxy]-1H-pyrazol-4-yl}-2-propenoate] had a melting point of 147 to 148 °C.

`COc1cc(COc2nn(Cc3ccccc3)cc2/C=C/C(=O)O)ccc1OCc1nc(-c2ccco2)oc1C` [Example 260, (2E)-3-{1-benzyl-3-[(4-{[2-(2-furyl)-5-methyl-1,3-oxazol-4-yl]methoxy}-3-methoxybenzyl)oxy]-1H-pyrazol-4-yl}-2-propenoic acid] displayed a melting point of 175 to 176 °C. The result for `Cc1oc(-c2ccccc2)nc1COc1ccc(OCc2oc(-c3ccccc3)nc2/C=C/C(=O)O)cc1` [Example 261, (2E)-3-[5-({4-[(5-methyl-2-phenyl-1,3-oxazol-4-yl)methoxy]phenoxy}methyl)-2-phenyl-1,3-oxazol-4-yl]-2-propenoic acid] reads 209 to 210 °C; that for `COc1cc(COc2nn(-c3ccccc3)cc2/C=C2\SC(=O)NC2=O)ccc1OCc1nc(-c2ccco2)oc1C` [Example 262, (5Z)-5-({3-[(4-{[2-(2-furyl)-5-methyl-1,3-oxazol-4-yl]methoxy}-3-methoxybenzyl)oxy]-1-phenyl-1H-pyrazol-4-yl}methylene)-1,3-thiazolidine-2,4-dione], 252 to 253 °C. `CCOC(=O)c1cnc(-c2ccccc2)nc1OCc1ccc(OCc2nc(-c3ccco3)oc2C)c(OC)c1` [Example 263, ethyl 4-[(4-{[2-(2-furyl)-5-methyl-1,3-oxazol-4-yl]methoxy}-3-methoxybenzyl)oxy]-2-phenylpyrimidine-5-carboxylate] gave a melting point of 142 to 143 °C. In turn, `CCOC(=O)c1cn(C)nc1OCc1ccc(OCc2nc(-c3ccccc3)oc2C)c(OC)c1` [Example 264, ethyl 3-{[3-methoxy-4-(5-methyl-2-phenyl-1,3-oxazol-4-ylmethoxy)benzyl]oxy}-1-methyl-1H-pyrazole-4-carboxylate] registered a melting point of 134 to 135 °C. The same measure for `COc1cc(COc2nn(C)cc2C(=O)O)ccc1OCc1nc(-c2ccccc2)oc1C` [Example 265, 3-{[3-methoxy-4-(5-methyl-2-phenyl-1,3-oxazol-4-ylmethoxy)benzyl]oxy}-1-methyl-1H-pyrazole-4-carboxylic acid]: 169 to 170 °C.
